Test results: patent publication US7933647B2, “Methods of increasing lipolysis” (Transfert Plus, S.E.C., priority 2005, dated 2011)

How the values were obtained:
adipocytes [1] = test: Adipocyte lipolysis in the biphasic electrical stimulation study, adipocytes from 4 women (Example III); assay type: cell-based, human; conditions: suprailiac adipocytes of 4 women aged 40-52; non significant level (FIG. 2)
Protocol: It was tested if biphasic electrical stimulation can induce lipolysis in adipocyte. 4 women between 40-52 years of age were used as subject. Adipose tissue was obtained from suprailiac areas through liposuction. It is disclosed that isoproterenol (ISO) increased adipocyte lipolysis by 15% i.e. at a non significant level (FIG. 2). […] Moreover, the 4 mA biphasic stimulation increased basal lipolysis by 1.8 x thus at a lower level than the 6 mA stimulation.

adipocytes [2] = test: Adipocyte lipolysis measured by glycerol release from isolated adipocytes (Examples I-II); assay type: cell-based, human; conditions: isoproterenol 10^-4 M, 30 minutes
Protocol: Tissue samples. Adipose tissues were obtained from 11 pre-menopaused women, aged under 45, who were undergoing liposuction or an aesthetic surgery in the supra-iliac region. Adipocyte isolation. The adipose tissues were first placed in Krebs buffer and transported to the laboratory. Fragments of fresh adipose tissue were then incubated in a collagenase type II solution (reconstituted in Krebs buffer, 5 mg of collagenase per gm of tissue; Sigma) for 30 minutes at 37° C. under agitation (100 rpm) in a controlled atmosphere (95% O2, 5% CO2) (Rodbell, 1964). After the incubation period, the cellular suspension was filtered through a 250 μm nylon mesh and separated from the stromal and vascular fraction by flotation. […] Adipocytes were counted using a Neubauer hemacytometer using trypan blue dye. […] Because free fatty acids can be re-esterified Inside the adipocyte while glycerol is not, lipolysis was evaluated by measuring the release of glycerol. Glycerol was indirectly measured by assessing the formation of NADH produced during its enzymatic transformation. NADH was measured using a spectrophotometer (Pharmacia LKB-Novaspec), at a wavelength of 340 nm. Results are expressed as μmol of glycerol released per 10^6 adipocytes per 30 minutes. […] The mean and standard deviation were calculated.

## CC(C)NCC(O)c1ccc(O)c(O)c1 (stereo not drawn) [isoproterenol]
Adipocytes [1]
  Increase of adipocyte lipolysis: 15%
Adipocytes [2]
  Increase of adipocyte lipolysis compared to control values (BASAL): 2.6 fold
Adipocytes [2]; 37° C., N=11 individuals, BASAL mean 1.4
  Mean glycerol released (lipolysis): 3.7 μM of glycerol
